Type in all cases: cell-based, Cucumis sativus
Assay [1] deals with Psy mRNA. In words: In vitro flower bud culture, Northern blot of Psy mRNA in corollas. The conditions noted are these: 100 μM ABA or 100 μg/ml paclobutrazol, 2 hours of treatment. On the procedure: (§1) Young flower buds were cultured in vitro in the presence (GA) or the absence (C) of 100 μM GA3 for up to 48 hours. Northern and Western blot analyses of corollas, cultured for the indicated periods of time, were performed. The Northern blots (25 μg total RNA/lane) were hybridized with ^32P-labeled DNA inserts from CHRC (CHRC), […] (Psy), and 18s rDNA (18S). Western blot analysis (bottom panel of A) was performed using antibodies against CHRC protein (25 μg total protein/lane). The results of the CHRC Northern blot analyses are also shown graphically relative to the mRNA level of the untreated corollas at zero time (0) (arbitrary value of 1).
(§2) Flower buds were cultured in the presence of 100 μm GA3 (GA), 100 μg/ml paclobutrazol following 2 hours of pretreatment with 100 μg/ml paclobutrazol (P), 100 μg/ml paclobutrazol +100 μm GA3 following 2 hours of pretreatment with 100 μg/ml paclobutrazol (P/GA), 100 μM ABA (ABA), or no phytohormones (C). Total RNA was extracted from corollas after 2 hours of treatment. Northern blot analyses were performed and probed as described in the legend to FIG. 7.
(§3) Total RNA and protein were extracted from cucumber corollas of flower buds cultured for 6 hours in the presence of 100 μM GA3 (GA), 50 μM CHX following 2 hours of pretreatment with 50 μM CHX (CHX/GA), or no phytohormones (C). Northern (CHRC, Psy, and 18S) and Western (bottom panel) blot analyses were performed as described above.
This example describes plant material and conditions for in vitro flower bud culture. C. sativus L. plants (cultivar Shimahon, obtained from Zeraim Gadera, Israel) were grown under standard greenhouse conditions. In vitro culture of flower buds was performed at 23° C., under constant light from cool white fluorescent lamps with a photosynthetic photon flux density of 80 μmol/m^2 g, as described previously. Briefly, buds at developmental stage 1 (˜8 mm in length, 120 hours before anthesis) were collected and rinsed several times with sterile water. Buds were then placed for 24 hours on a perforated Parafilm (American National Can, Greenwich, Conn.) covering a Petri dish filled with double-distilled sterile water, such that only the bases of the buds were in contact with the liquid. […]
This example describes conditions used for RNA isolation and Northern blot analysis. […] Autoradiograms were quantified by scanning suitably exposed films in a densitometer (Molecular Dynamics, Sunnyvale, Calif.). The amount of RNA loaded onto the gels was standardized by optical measurement, by quantitation of the ethidium bromide fluorescence of cytoplasmic rRNA. and by the level of hybridization with a DNA fragment coding for cytoplasmic 18S RNA.

For assay [2], the system named is CHRD. In words: In vitro flower bud culture, Western blot of CHRD in corollas. The note with it: flower buds cultured for 72 hours. On the procedure: CHRD levels in corollas were analyzed by western blotting (10 μg of total protein per lane) using antibodies against CHRD and horseradish peroxidase anti-rabbit IgG in an enhanced chemiluminescence detection system. FIG. 14B is a Western blot analysis of corollas (50 μg of total protein per lane) cultured for the indicated periods with (+) or without (−) GA3. The blot was decorated with antibodies against CHRD and alkaline phosphatase anti-rabbit 1 gG.
In FIG. 15A, antibodies against CHRD or CHRC were used in a western blot analysis of CHRD and CHRC levels, respectively, in corollas cultured for 72 hours in the presence (E) or absence (C) of ethylene (50 μg of total protein per lane). In FIG. 15B, flowers were enclosed in aluminum foil in the greenhouse for 3 days and CHRD levels in etiolated (D) and control, nonetiolated (L) corollas were analyzed by western blotting (50 μg of total protein per lane).
(§4) This example describes plant material and conditions for in vitro flower bud culture. C. sativus L. plants (cultivar Shimahon, obtained from Zeraim Gadera, Israel) were grown under standard greenhouse conditions. In vitro culture of flower buds was performed at 23° C., under constant light from cool white fluorescent lamps with a photosynthetic photon flux density of 80 μmol/m^2 g, as described previously. Briefly, buds at developmental stage 1 (˜8 mm in length, 120 hours before anthesis) were collected and rinsed several times with sterile water. Buds were then placed for 24 hours on a perforated Parafilm (American National Can, Greenwich, Conn.) covering a Petri dish filled with double-distilled sterile water, such that only the bases of the buds were in contact with the liquid. Following equilibration, buds were transferred to a fresh Petri dish (zero time for the experiments) and treated with GA3, ABA, paclobutrazol, or CHX, as specified in the figure legends.
CHRD protein was isolated from Cucumis sativus as a minor component, immunologically characterised and analyzed in terms of the regulation of its expression by developmental signals using methods and conditions described above for CHRC. […] Carotenoids are known to accumulate in dark.
(In general: In western blotting, separated proteins are transferred to a membrane and probed.)

The test system of assay [3] is CHRC mRNA. Description: In vitro flower bud culture, Northern blot of CHRC mRNA in corollas. The conditions noted are these: 100 μM ABA, 2 hours. On the procedure:
as §1, §2, §3
In FIG. 10, flower buds were cultured for 2 hours without (0) or with various concentrations of GA3. Total RNA was isolated from corollas, and a Northern blot was probed as above. The results of the CHRC Northern blot analyses are also shown graphically relative to the mRNA level of control corollas cultured without GA3 (arbitrary value of 1).
as §4
This example describes conditions used for RNA isolation and Northern blot analysis. Total RNA from corollas of cucumber flower buds was isolated as described previously. RNA (15 and 25 μg) was fractionated through a 1.2% formaldehyde gel and transferred to a Hybond-N^− filter (Amersham Corp.). A random priming kit (Boehringer Mannheim) was used to radioactively labeled DNA probes. The blots were hybridized with ^32P-labeled cucumber CHRC cDNA (Vishnevetsky, et al., Plant Journal, 10: 1111-1118 (1996)) and reprobed with melon phytoene synthase (PSY) cDNA (MEL5), provided by D. Grierson of the Nottingham University, UK. The hybridization for analysis of CHRC expression was carried out in 0.263 M Na2HPO4, 7% SDS, […], 1% BSA for 16 hours at 60° C., and the washes were performed in 2×SSC/0.1% SDS at 50° C. followed by 2×SSC/0.1% SDS at 55° C., for 20 minutes each. Hybridization with the MEL5 probe was carried out at 55° C. using the same procedure. Following the hybridization, the blots were washed in 5×SSC/0.1% SDS at 45° C. for 20 minutes followed by 5×SSC/0.1% SDS at 50° C. and 2×SSC/0.1% SDS at 50° C. for 20 minutes each. […]

Assay [4] concerns CHRC mRNA. Described as above. The note with it: 10 μM ABA.

Data on one compound can be found in US6551793B1, “Carotenoid-associated proteins useful for high carotenoid accumulation and production in plants and other organisms” (Yissum Research Development Company of the Hebrew …, priority 1996, dated 2003).

As for `CC1=CC(=O)CC(C)(C)[C@@]1(O)/C=C/C(C)=C\C(=O)O` [ABA, abscisic acid], the “Effect on Psy mRNA levels” value in assay [1] is “Neither ABA nor paclobutrazol markedly affected”. Also, the “CHRD level per unit protein, down-regulation compared with control untreated corollas” value in assay [2] was 2.5±0.3 times. For the same compound, the “Down-regulation of CHRC mRNA level compared with control corollas” value in assay [3] was 2.5 times. The “Down-regulation of CHRC expression” value in assay [4] is recorded as “only slightly down-regulated”.
